Data reported in article PMC11310081, “Deep-learning-enabled antibiotic discovery through molecular de-extinction” (Nature Biomedical Engineering, 2024).
Like-named read-outs stand apart in the source and are kept apart here. Peptide text beside a SMILES is read from it.

What was measured:
[1] = test system: 11 clinically relevant bacterial pathogens; type: cell-based; conditions: Supplementary Dataset 2; against the 11 pathogens tested
Source text: The following Gram-negative bacteria were used in our study: A. baumannii ATCC 19606, E. coli ATCC 11775, E. coli AIC221 (E. coli MG1655 phnE_2::FRT), E. coli AIC222 (E. coli MG1655 pmrA53 phnE_2::FRT (colistin resistant)), K. pneumoniae ATCC 13883, P. aeruginosa PAO1 and P. aeruginosa PA14. The following Gram-positive bacteria were also used in our study: S. aureus ATCC 12600, S. aureus ATCC BAA-1556 (methicillin-resistant strain), E. faecalis ATCC 700802 (vancomycin-resistant strain) and E. faecium ATCC 700221 (vancomycin-resistant strain). Bacteria were grown from frozen stocks and plated on Luria–Bertani (LB) or Pseudomonas isolation agar plates (P. aeruginosa strains) and incubated overnight at 37 °C. After the incubation period, a single colony was transferred to 5 ml of LB medium, and cultures were incubated overnight (16 h) at 37 °C. The following day, an inoculum was prepared by diluting the overnight cultures 1:100 in 5 ml of the respective media and incubating them at 37 °C until bacteria reached logarithmic phase (OD600 = 0.3–0.5).
The in vitro antimicrobial activity of the peptides was assessed by using the broth microdilution assay. […] Aqueous solutions of the peptides were added to the plate at concentrations ranging from 1 to 64 μmol l^−1. […] The optical density of the plates was measured at 600 nm using a spectrophotometer. All assays were done as three biological replicates.

[2] = test system: HEK293T cells
Procedure: HEK293T cells were obtained from the American Type Culture Collection (CRL-3216). The cells were cultured in high-glucose Dulbecco’s modified Eagle’s medium supplemented with 1% penicillin and streptomycin (antibiotics) and 10% fetal bovine serum and grown at 37 °C in a humidified atmosphere containing 5% CO2.
One day before the experiment, an aliquot of 100 μl of the cells at 50,000 cells per ml was seeded into each well of the cell-treated 96-well plates used in the experiment (that is, 5,000 cells per well). […] After the incubation period, we performed the 3-(4,5-dimethylthiazol-2-yl)-2,5-diphenyltetrazolium bromide tetrazolium reduction assay (MTT assay)[53]. The MTT reagent was dissolved at 0.5 mg ml^−1 in medium without phenol red and was used to replace cell culture supernatants containing the peptides (100 μl per well), and the samples were incubated for 4 h at 37 °C in a humidified atmosphere containing 5% CO2 yielding the insoluble formazan salt. The resulting salts were then resuspended in hydrochloric acid (0.04 mol l^−1) in anhydrous isopropanol and quantified by spectrophotometric measurements of absorbance at 570 nm. All assays were done as three biological replicates.
Unless otherwise stated, all assays were performed in three independent biological replicates as indicated in each figure legend and Methods sections. The cytotoxic activities values were estimated using non-linear regression based on the range of concentrations screened and were shown as the values that cause lysis of 50% of the cells in the experiment. Two technical replicates were performed in the cytotoxicity assays within each of the three biological replicates.

[3] = test system: A. baumannii ATCC 19606; experiment: Skin abscess infection mouse model; type: in vivo, CD-1 mice; conditions: CD-1 mice
Procedure: A. baumannii ATCC 19606 cells were grown in LB medium to an OD600 = 0.5. Cells were washed twice with sterile phosphate-buffered saline (PBS) (pH 7.4, 13,000 r.p.m. for 2 min) and resuspended to a final concentration of 10^6 (A. baumannii cells) colony-forming units per millilitre (c.f.u. ml^−1). Six-week-old female CD-1 mice from Charles River (stock number 18679700-022) were anaesthetized with isoflurane, and their backs were sterilized and shaved. A superficial linear skin abrasion was made with a needle to damage the stratum corneum and upper layer of the epidermis. An aliquot of 20 μl containing the bacterial load resuspended in PBS was inoculated over the scratched area. Two hours after the infection, peptides diluted in water at their MIC value were administered to the infected area, and the untreated mice were inoculated with the same volume of deionized water. Mice were euthanized, and the area of scarified skin was excised 2 days and 4 days post infection, homogenized using a bead beater for 20 min (25 Hz) and then serially diluted tenfold for quantification of colony-forming units. This quantitative method was used as it has been established to accurately reflect the number of bacteria present in a given infected area. MacConkey agar plates were used as A. baumannii colonies appear purple in this medium and can easily be distinguished from other strains. The experiments were performed with six mice per group. All experiments were performed blindly, and no animal subjects were excluded from the analysis. The skin abscess infection mouse model was approved by the University Laboratory Animal Resources from the University of Pennsylvania (protocol 806763). Statistical significance was determined using one-way analysis of variance (ANOVA) followed by Dunnett’s test in log10-transformed data to mitigate the effect of outliers; P values are presented for each group, with all groups being compared to the untreated control group.

[4] = test system: A. baumannii ATCC 19606; experiment: Neutropenic thigh infection mouse model; type: in vivo, CD-1 mice; conditions: neutropenic CD-1 mice
Procedure: Six-week-old female CD-1 mice from Charles River (stock number 18679700-022) were rendered neutropenic by two doses of cyclophosphamide (150 mg kg^−1) applied intraperitoneally with an interval of 72 h. One day after the last dose of cyclophosphamide, the mice were injected intramuscularly in their right thigh with a bacterial load of 10^6 c.f.u. ml^−1 of A. baumannii ATCC 19606 cells. The bacteria had been grown in LB broth, washed twice with PBS (pH 7.4), and resuspended to the desired concentration. Two hours after bacterial injection, peptides resuspended in water were administered intraperitoneally, and the untreated mice were inoculated with the same volume of deionized water. Before each injection, mice were anaesthetized with isoflurane and monitored for respiratory rate and pedal reflexes. Next, we monitored the establishment of the infection and euthanized the mice. The infected area was excised 2 days and 4 days post infection, homogenized using a bead beater for 20 min (25 Hz), and then serially diluted tenfold for quantification of colony-forming units in MacConkey agar plates. The experiments were performed with six mice per group. All experiments were performed blindly, and no animal subjects were excluded from the analysis. The thigh infection mouse model was approved by the University Laboratory Animal Resources from the University of Pennsylvania (protocol 807055). Statistical significance was determined using one-way ANOVA followed by Dunnett’s test in log10-transformed data to mitigate the effect of outliers; P values are presented for each group, with all groups being compared to the untreated control group.

[5] = A. baumannii ATCC 19606, day 2, replicate 1
[6] = A. baumannii ATCC 19606, day 2, replicate 2
[7] = A. baumannii ATCC 19606, day 2, replicate 3
[8] = A. baumannii ATCC 19606, day 2, replicate 4
[9] = A. baumannii ATCC 19606, day 2, replicate 5
[10] = A. baumannii ATCC 19606, day 2, replicate 6
[11] = A. baumannii ATCC 19606, day 4, replicate 1
[12] = A. baumannii ATCC 19606, day 4, replicate 2
[13] = A. baumannii ATCC 19606, day 4, replicate 3
[14] = A. baumannii ATCC 19606, day 4, replicate 4
[15] = A. baumannii ATCC 19606, day 4, replicate 5
[16] = A. baumannii ATCC 19606, day 4, replicate 6

CC[C@H](C)[C@H](NC(=O)[C@H](CCCCN)NC(=O)[C@H](CC(C)C)NC(=O)[C@H](Cc1c[nH]cn1)NC(=O)[C@@H](N)CC(C)C)C(=O)N[C@@H](CC(C)C)C(=O)N[C@@H](CCCCN)C(=O)N[C@H](C(=O)N[C@H](C(=O)N[C@@H](CCCNC(=N)N)C(=O)N[C@@H](CC(C)C)C(=O)N[C@@H](CC(C)C)C(=O)O)[C@@H](C)CC)[C@@H](C)CC [Elephasin-1] (H-LHLKILKIIRLL-OH; N-terminus and C-terminus assumed)
Active or Inactive [1]: Active

CC[C@H](C)[C@H](N)C(=O)N[C@@H](CC(C)C)C(=O)N[C@H](C(=O)N[C@@H](CC(C)C)C(=O)N[C@@H](Cc1ccccc1)C(=O)N[C@H](C(=O)N[C@H](C(=O)N[C@@H](Cc1ccccc1)C(=O)N[C@@H](CCC(N)=O)C(=O)N[C@@H](CC(C)C)C(=O)N[C@@H](CCCCN)C(=O)N[C@H](C(=O)N[C@@H](CO)C(=O)N[C@@H](CCCCN)C(=O)N[C@@H](CC(C)C)C(=O)O)[C@@H](C)CC)[C@@H](C)CC)[C@@H](C)CC)[C@@H](C)O [Paleopropin-2] (H-ILTLFIIFQLKISKL-OH; N-terminus and C-terminus assumed)
CC50 ([2]; 24 h): > 128 µM
TI (therapeutic index) ([2]; 24 h): > 8
Active or Inactive [1]: Active

CC[C@H](C)[C@H](NC(=O)[C@H](CCCCN)NC(=O)[C@H](CC(C)C)NC(=O)[C@H](CO)NC(=O)[C@@H](NC(=O)[C@H](CO)NC(=O)[C@H](CC(C)C)NC(=O)[C@H](CCCCN)NC(=O)[C@@H](NC(=O)[C@@H](NC(=O)[C@H](CC(N)=O)NC(=O)[C@@H](NC(=O)[C@@H](NC(=O)[C@@H](NC(=O)[C@H](Cc1c[nH]c2ccccc12)NC(=O)[C@@H](N)Cc1c[nH]cn1)[C@@H](C)CC)[C@@H](C)O)[C@@H](C)CC)[C@@H](C)O)[C@@H](C)CC)[C@@H](C)CC)C(=O)O [Lophiosin-1] (H-HWITINTIKLSISLKI-OH; N-terminus and C-terminus assumed)
CC50 [2]: 68.02 µM
Active or Inactive [1]: Active

CC[C@H](C)[C@H](NC(=O)[C@H](Cc1ccccc1)NC(=O)[C@@H](N)CC(C)C)C(=O)NCC(=O)N[C@@H](CC(C)C)C(=O)N[C@H](C(=O)N[C@@H](CC(N)=O)C(=O)N[C@@H](CC(C)C)C(=O)N[C@@H](CC(C)C)C(=O)NCC(=O)N[C@@H](CC(C)C)C(=O)N[C@@H](CC(C)C)C(=O)O)[C@@H](C)O [Mammuthusin-4] (H-LFIGLTNLLGLL-OH; N-terminus and C-terminus assumed)
CC50 ([2]; 24 h): > 128 µM
Active or Inactive [1]: Active

CC[C@H](C)[C@H](N)C(=O)N[C@H](C(=O)NCC(=O)N[C@@H](CC(N)=O)C(=O)N[C@H](C(=O)N[C@@H](Cc1ccccc1)C(=O)NCC(=O)N[C@@H](Cc1ccccc1)C(=O)N[C@@H](CCCCN)C(=O)N[C@@H](C)C(=O)N[C@@H](CC(C)C)C(=O)N[C@@H](CCCNC(=N)N)C(=O)N[C@@H](C)C(=O)N[C@@H](CC(C)C)C(=O)N[C@@H](CCCNC(=N)N)C(=O)N[C@@H](CC(C)C)C(=O)O)C(C)C)C(C)C [Hesperelin-4] (H-IVGNVFGFKALRALRL-OH; N-terminus and C-terminus assumed)
Active or Inactive [1]: Active

polymyxin B [reference compound]
bacterial count, skin abscess (Panel 6b) [3, 5]: 4000
bacterial count, skin abscess (Panel 6b) [3, 6]: 2000
bacterial count, skin abscess (Panel 6b) [3, 7]: 8000
bacterial count, skin abscess (Panel 6b) [3, 8]: 6000
bacterial count, skin abscess (Panel 6b) [3, 9]: 1400
bacterial count, skin abscess (Panel 6b) [3, 10]: 400
bacterial count, skin abscess (Panel 6b) [3, 11]: 8000
bacterial count, skin abscess (Panel 6b) [3, 12]: 10000
bacterial count, skin abscess (Panel 6b) [3, 13]: 600
bacterial count, skin abscess (Panel 6b) [3, 14]: 600
bacterial count, skin abscess (Panel 6b) [3, 15]: 200
bacterial count, skin abscess (Panel 6b) [3, 16]: 400
bacterial count, thigh infection (Panel 6d) [4, 5]: 20000
bacterial count, thigh infection (Panel 6d) [4, 6]: 80000
bacterial count, thigh infection (Panel 6d) [4, 7]: 200000
bacterial count, thigh infection (Panel 6d) [4, 8]: 40000
bacterial count, thigh infection (Panel 6d) [4, 9]: 40000
bacterial count, thigh infection (Panel 6d) [4, 10]: 200000
bacterial count, thigh infection (Panel 6d) [4, 11]: 200000
bacterial count, thigh infection (Panel 6d) [4, 12]: 400000
bacterial count, thigh infection (Panel 6d) [4, 13]: 1200000
bacterial count, thigh infection (Panel 6d) [4, 14]: 600000
bacterial count, thigh infection (Panel 6d) [4, 15]: 600000
bacterial count, thigh infection (Panel 6d) [4, 16]: 200000
